Where two headings read alike, the source gives them in different places.
How the values were obtained:
HCVcc-1a/2a-Rluc = type: cell-based, hepatitis C virus; conditions: mean of 8 independent experiments
HCVcc-1b/2a = type: cell-based, hepatitis C virus
HCVcc-2a/2a-Rluc = type: cell-based
[1] = type: cell-based; conditions: human, Huh-7.5 cells
HCVcc-1a/2a = conditions: 0.5 µM EI-1 in agarose overlay
Protocol: An assay incorporating a semisolid medium was used to access cell-to-cell spread as described [57]. HCVcc-1a/c2a was added to 1.6×10^4 Huh-7.5 cells at 0.001 ffu/cell incubated at 37°C. […] Cells were incubated at 37°C for 2, 3 or 4 days at which time the agarose was removed and the infected cells were detected using indirect immunofluorescence for the HCV core protein as described above. The mean number of infected cells/ffu was determined from ≥100 foci for each data point.

BVDV = assay: microbe, parasite or virus in culture; conditions: Bovine viral diarrhea virus isolates and strains, read-out: EC50 BVDV
Protocol: (§1) BVDV cell protection assays were performed essentially as described [54] by infecting MDBK cells with 0.1 pfu/cell of BVDV strain NADL. Infected cells were incubated at 37°C for 3 days and virus-induced cytopathicity was measured using the Cell Titer-Glo reagent (Promega). HIV assays were performed as described [55] by infecting MT2 cells with 0.05 pfu/cell of the NL4-3 strain of HIV (NIH Research and Reference Reagent Program) containing the Renilla luciferase gene (NL-Rluc) in the Nef locus. Infected cells were incubated at 37°C for 5 days and virus replication was measured by reverse transcriptase assay using a scintillation proximity assay as described [55].

in vitro [2] = conditions: bovine
Protocol: (§2) In addition, compound-induced cytotoxicity in each cell line used for the infection assays was measured.

HIV = assay: microbe, parasite or virus in culture; conditions: Human immunodeficiency virus 1, MT2, read-out: EC50 HIV
Protocol: as §1

in vitro [3] = conditions: dog
Protocol: as §2

VSVpp = assay: microbe, parasite or virus in culture; type: cell-based; conditions: Vesicular stomatitis virus, Huh-H1, read-out: EC50 VSVpp
HCVpp-1b = assay: Inhibitor time-of-addition / attachment vs post-attachment assay, Huh-H1 cells
Protocol: Huh-H1 cells were seeded at 5×10^3 cells/well in 96-well plates. The following day the plates were chilled to 4°C and the media was removed and replaced with HCVpp inoculum in a volume of 50 µl. Plates were incubated at 4°C for 1.5 hr on a rocking platform. The inoculum was removed and unbound virus was removed by 2 washes with 4°C media. Fresh media was added and the plates were shifted to a 37°C incubator. […] At 3 days post infection, firefly luciferase activity was quantified using the Steady-Glo Reagent (Promega) according to the manufacturer's instructions. Experiments were done in triplicate and the mean % inhibition was calculated relative to control infections lacking inhibitor.

in vitro [4] = conditions: human
Protocol: as §2

HCV entry = type: cell-based, hepatitis C virus

C=C[C@@H]1C[C@]1(NC(=O)[C@@H]1C[C@@H](Oc2nccc3cc(OC)ccc23)CN1C(=O)[C@@H](NC(=O)OC(C)(C)C)C(C)(C)C)C(=O)NS(=O)(=O)C1CC1 [BMS-605339]
EC50 (HCVcc-1a/2a-Rluc): 0.123 µM

COC(=O)N[C@H](C(=O)N1CCC[C@H]1c1nc(-c2ccc(-c3ccc(-c4c[nH]c([C@@H]5CCCN5C(=O)[C@@H](NC(=O)OC)C(C)C)n4)cc3)cc2)c[nH]1)C(C)C [BMS-790052, reference compound]
virus release, inhibitor added 5 hours post infection (post entry; in words) (HCVcc-1b/2a): prevented virus release

CCCCCNc1nc(Nc2ccc([N+](=O)[O-])cc2)nc(OCC(F)(F)F)n1 [EI-1, N ^2-(4-nitrophenyl)-N ^4-pentyl-6-(2,2,2-trifluoroethoxy)-1,3,5-triazine-2,4-diamine]
activity against genotype 2a/2a chimeric virus (in words) (HCVcc-2a/2a-Rluc): not active | CC50 [1]: > 50 µM | cell-to-cell transmission (in words) (HCVcc-1a/2a): abrogated | EC50 (BVDV): > 50 µM | CC50 (in vitro [2]): > 50 µM | EC50 (HIV): 23.4 µM | CC50 (in vitro [3]): > 50 µM | EC50 (VSVpp): 33 µM | progeny virus release, inhibitor present during entry (in words) (HCVcc-1b/2a): dose-dependent reduction | virus release, inhibitor added 5 hours post infection (post entry; in words) (HCVcc-1b/2a): did not affect the levels of virion particles or infectious virus produced | effect on the attachment of HCVpp to HSPGs (inhibitor during 4°C step only; in words) (HCVpp-1b; 0.125 µM EI-1): little effect | time of infection within which inhibition is exerted (HCVpp-1b; 0.125 µM EI-1 added at intervals after 37°C shift): ≤ 3 h | inhibition at 0.125 µM (HCVpp-1b; Hepatitis C virus, Huh-H1, read-out: inhibition when inhibitor present during the 37°C phase only (post-attachment)): > 90% | CC50 (in vitro [4]): > 50 µM

CO/C1=C\C(C)=C\[C@@H](C)[C@@H](O)[C@@H](C)C/C(C)=C/C=C/[C@H](OC)[C@@H]([C@@H](C)[C@@H](O)[C@H](C)[C@@]2(O)C[C@@H](O)[C@H](C)[C@@H](C(C)C)O2)OC1=O [bafilomycin, bafilomycin A1, reference compound]
time after the 37°C temperature shift at which sensitivity to the inhibitor was lost (HCVpp-1b; 10 nM bafilomycin A1): ≥ 3 h | stage of entry at which the control inhibitor is effective (in words) (HCVpp-1b; heparin 200 µg/ml, anti-CD81 monoclonal antibody 2 µg/ml, bafilomycin A1 10 nM): only effective during the post-attachment stage

CCCCCCCCO[C@@H]1O[C@H](CO)[C@@H](O)[C@H](O)[C@H]1O [β-OG, n-octyl-β-D-glucoside]
inhibition of HCV entry (in words) (HCV entry): did not inhibit

From paper PMC2936744 (PLoS Pathogens, 2010)
